Measured values reported in patent US20190330140A1, “Compound for Use in Enzymatic Reaction and Mass Spectrometry Method” (HITACHI HIGH-TECHNOLOGIES CORPORATION, priority 2016, published 2019).

System: galactosidase
Assay: enzymatic reaction with galactosidase, product measured
Assay type: biochemical
Conditions: 0.5 ng/ml galactosidase, 1 hour
Description: When a solution of 20 ng/ml of HVG and 0.5 ng/ml of galactosidase in a 10 mmol/L phosphate buffer (pH 7.3) containing 5% (v/v) of methanol and 1 mmol of magnesium chloride was prepared and was reacted at 37° C. for 1 hour, 0.532 ng/ml of HV was then produced. […] It was found from this example that HVG has the same level of enzymatic susceptibility as p-nitrophenylgalactoside which is known as a good substrate for galactosidases.

p-nitrophenol produced from substrate (substrate in place of HVG, phosphate buffer pH 7.3, 37° C.)	HV produced from substrate (20 ng/ml HVG, 10 mmol/L phosphate buffer pH 7.3, 5% methanol, MgCl2, 37° C.)	SMILES
0.532 ng/mL	–	O=[N+]([O-])c1ccc(O[C@@H]2O[C@H](CO)[C@H](O)[C@H](O)[C@H]2O)cc1 [p-Nitrophenyl galactoside]
–	0.532 ng/mL	COc1ccc(CCN(C)CCCC(C(=O)Nc2ccc(O[C@@H]3OC(CO)[C@H](O)[C@@H](O)C3O)cc2)(c2ccc(OC)c(OC)c2)C(C)C)cc1OC (some centres unmarked) [HVG]
